Data: patent US4764464A, “Semisynthetic enzymes: apoproteins from heme proteins as hydrolases” (priority 1986, dated 1988)

Key:
apomyoglobin = biological target: T1, apomyoglobin (Physeter macrocephalus, UniProt P02185); experiment: Hydrolysis of p-nitrophenyl alkanoates catalysed by apomyoglobin (absorbance at 400 nm); format: biochemical, sperm whale; conditions: for k2 /KM (catalytic constant) / k2 /Kun (enhancement over rate in the absence of apomyoglobin) / K2 / kobs: 25° C.; for k2 /KM (catalytic constant) / k2 /Kun (enhancement over rate in the absence of apomyoglobin) / K2: pH 8; for K2: Lineweaver Burk; for kobs: pH 8, 0.05 M TRIS
T1 construct: purchased
T1 sequence (P02185 whole entry): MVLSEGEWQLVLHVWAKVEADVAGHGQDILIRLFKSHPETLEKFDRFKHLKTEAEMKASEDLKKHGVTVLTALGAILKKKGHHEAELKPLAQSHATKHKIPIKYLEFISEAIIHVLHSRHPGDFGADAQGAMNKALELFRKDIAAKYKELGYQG
Description: Preparation of Apomylglobin. The heme group was removed from sperm whale metmyoglobin by the acid acetone method of Rossi-Fanelli and coworkers, op. cit., from a commercially available sample which was not purified prior to use.
(§1) Hydrolysis of p-Nitrophenyl Alkanoates. The experimental methods used in the hydrolysis of these esters is exemplified by the hydrolysis of p-nitrophenyl caproate. Kinetic runs were performed with the semisynthetic enzyme, apomyoglobin, in excess of the substrate. All hydrolyses were done in 99.9% aqueous media at 25° C. at pH 8 using 0.05 molar tris(hydroxymethyl)aminomethane(TRIS) as a buffer. Each sample cuvette containing varying concentrations of apomyoglobin (Eo) in 1 ml of 0.05M buffer was allowed to equilibrate at 25° C. in a thermostated cell holder of a spectrophotometer. To this was added 1 microliter of 1.13×10^-2 M p-nitrophenyl caproate in ethanol and the contents thereafter were mixed well. The increase in absorbance at 400 nm arising from the p-nitrophenolate ion was monitored as a function of time until hydrolysis was complete.
(§2) In the absence of apomyoglobin the hydrolysis of a solution of 1.13×10^-5 M of the same ester under the same conditions proceeded with the rate constant of 2.7×10^-5 sec^-1. The enhancement achieved with the semisynthetic enzyme is therefore 1800.
Where the same type of experiment yielded a decrease in catalysis rate in those instances the deacylation may become rate limiting. Some results of ester hydrolysis catalyzed by apomyoglobin are summarized in Table 2, where k2 /kM is often referred to as the "catalytic constant," and kun is the hydrolytic rate constant in the absence of apomyoglobin.

[1] = system: apomyoglobin (denatured, 8 molar urea); experiment: Hydrolysis of p-nitrophenyl acetate with apomyoglobin denatured in 8 molar urea; format: biochemical, sperm whale; conditions: after 150 seconds, apomyoglobin solution also 8 molar in urea
Description: To ascertain that our remarkable catalytic rates result from the active site only of the empty heme pocket or cavity the following experiments were performed. In the first experiment reconstituted myoglobin was prepared from apomyoglobin and hemin, and the hydrolysis of p-nitrophenyl caproate was determined as previously described. […] This eliminates the possibility that periperal lysine and histidine residues catalyze hydrolysis. In the second experiment the rate of hydrolysis of a solution of p-nitrophenyl acetate in buffer containing apomyoglobin, prepared as described above, was compared with the rate of hydrolysis in a similar solution which was also 8 molar in urea to ensure denaturation of apomyoglobin. After 150 seconds the reaction was 98% complete in the first solution, but only 2% complete in the urea-containing solution.

[2] = Hydrolysis of the ester in the absence of apomyoglobin (spontaneous rate); format: physicochemical; conditions: 1.13×10^-5 M ester, 25° C., pH 8, 0.05 M TRIS
Description: as §1, §2

reconstituted myoglobin = experiment: Hydrolysis of p-nitrophenyl caproate with reconstituted myoglobin (apomyoglobin and hemin); format: biochemical, sperm whale; conditions: reconstituted myoglobin from apomyoglobin and hemin
Description: as §1
To ascertain that our remarkable catalytic rates result from the active site only of the empty heme pocket or cavity the following experiments were performed. In the first experiment reconstituted myoglobin was prepared from apomyoglobin and hemin, and the hydrolysis of p-nitrophenyl caproate was determined as previously described. […] This eliminates the possibility that periperal lysine and histidine residues catalyze hydrolysis. […]

[3] = Denaturation (stability) of the apoprotein under reaction conditions; format: physicochemical, sperm whale
Description: The reaction temperature also is dictated by stability of the semisynthetic enzyme. When apoprotein derived from, e.g., sperm whale myoglobin is used, it often is denatured substantially at a temperature in excess of about 40° C., and consequently its use is recommended at a temperature under about 40° C. However, it needs to be emphasized that even where the semisynthetic enzyme is denatured at a higher temperature it can be used so long as its denaturation is slower than hydrolysis, although no reuse may be possible.
Finally, the pH at which the hydrolysis is performed also is dictated by the denaturation properties of the semisynthetic enzyme. For example, where the apoprotein is derived from sperm whale myoglobin a pH range between about 6.5 and about 9 is found to cause little if any denaturation.

k2 /KM (catalytic constant) (apomyoglobin)	k2 /Kun (enhancement over rate in the absence of apomyoglobin) (apomyoglobin)	K2 (apomyoglobin)	Compound	further results
6.4 M⁻¹ s⁻¹	42	–	CCC(=O)Oc1ccc([N+](=O)[O-])cc1	–
13.5 M⁻¹ s⁻¹	134	0.0058 s⁻¹	CC(=O)Oc1ccc([N+](=O)[O-])cc1 [Acetate, p-nitrophenyl acetate]	reaction completion [1]: 2%; rate of hydrolysis by 5×10^-5 M apomyoglobin versus apomyoglobin first reacted with 5×10^-5 M ester to 95% completion (apomyoglobin; 1×10^-5 M ester): identical; reaction completion (apomyoglobin; after 150 seconds, buffer containing apomyoglobin): 98%; Turnover (k3 versus k2) (apomyoglobin; rate with fresh apomyoglobin compared with pre-reacted apomyoglobin): k3 is much greater than k2
26.4 M⁻¹ s⁻¹	127	0.0038 s⁻¹	CCCC(=O)Oc1ccc([N+](=O)[O-])cc1 [Butyrate]	–
49 M⁻¹ s⁻¹	4600	0.03 s⁻¹	CCCCCCCCCC(=O)Oc1ccc([N+](=O)[O-])cc1 [Caprate]	–
67 M⁻¹ s⁻¹	1800	0.0493 s⁻¹	CCCCCC(=O)Oc1ccc([N+](=O)[O-])cc1 [Caproate, p-nitrophenyl caproate]	rate constant of hydrolysis in the absence of apomyoglobin [2]: 2.7e-05 s⁻¹; hydrolysis rate relative to the spontaneous (uncatalyzed) rate (reconstituted myoglobin): not more than twice that of the spontaneous (uncatalyzed) rate; kobs (apomyoglobin; Eo 2.11 (10^-5 M) apomyoglobin): 1.08 10^-2 sec^-1; kobs (apomyoglobin; Eo 4.23 (10^-5 M) apomyoglobin): 1.84 10^-2 sec^-1; kobs (apomyoglobin; Eo 6.35 (10^-5 M) apomyoglobin): 2.21 10^-2 sec^-1; kobs (apomyoglobin; Eo 8.46 (10^-5 M) apomyoglobin): 2.63 10^-2 sec^-1; kobs (apomyoglobin; Eo 10.6 (10^-5 M) apomyoglobin): 2.83 10^-2 sec^-1; K2 (apomyoglobin; listed as p-nitrophenyl caproate): 0.0493 s⁻¹
–	–	–	apoprotein derived from, e.g., sperm whale myoglobin: sperm whale metmyoglobin from which the heme group was removed by the acid acetone method; semisynthetic esterase	temperature above which substantially denatured [3]: > 40 °C
